The text below walks through data of patent US4349551A, “Penicillin derivatives and compositions containing them” (Beecham Group Limited, priority 1980, dated 1982).

≈ marks a conversion by molar mass, not a printed value. Read-outs that look alike come from different tables or passages of the source.

The subject of one series is B. subtilis. The experiment in a line: MIC against B. subtilis. It is filed as cell-based. To be noted: Bacillus subtilis, Agar. The source says: (§1) | MIC values (μg/ml) of the compounds of | Examples 1 and 2 against a number of | organisms important in human infections | Organism Agar Broth Agar Broth Agar
A further series has as its system E. coli JT 4. The experiment in a line: MIC against E. coli JT 4. Type of series: cell-based. To be noted: Escherichia coli, JT4, Agar.
Source text: as §1

For a further series, the system named is S. pyogenes ON 10. Put plainly: MIC against S. pyogenes ON 10. As to conditions: Streptococcus pyogenes, ON10, Agar. Type of series: cell-based.
Source text: as §1

The test system of another series is P. mirabilis 889. The experiment in a line: MIC against P. mirabilis 889. Type of series: cell-based. As to conditions: Proteus mirabilis, Agar.
Source text: as §1

Another series concerns E. coli JT 425. Put plainly: MIC against E. coli JT 425. It is filed as cell-based. To be noted: Escherichia coli, JT425, Agar.
Source text: as §1

The subject of a further series is S. marcescens US 32. The experiment in a line: MIC against S. marcescens US 32. Type of series: cell-based. As to conditions: Serratia marcescens, US32, Agar.
Source text: as §1

The next series relates to S. aureus Russell. The experiment in a line: MIC against S. aureus Russell. It is filed as cell-based. As to conditions: Staphylococcus aureus, Agar.
Source text: as §1

A further series deals with P. rettgeri. The experiment in a line: MIC against P. rettgeri. It is filed as cell-based. To be noted: Providencia rettgeri, Agar.
Source text: as §1

In another series the test system is P. mirabilis C 977. The experiment in a line: MIC against P. mirabilis C 977. Type of series: cell-based. To be noted: Proteus mirabilis, C977, Agar.
Source text: as §1

For a further series, the system named is E. cloacae N1. The experiment in a line: MIC against E. cloacae N1. Type of series: cell-based. As to conditions: Enterobacter cloacae, Agar.
Source text: as §1

A further series has as its system K. aerogenes A. Put plainly: MIC against K. aerogenes A. It is filed as cell-based. To be noted: Klebsiella aerogenes.
Source text: as §1

Another series deals with E. coli NCTC 10413. The experiment in a line: MIC against E. coli NCTC 10413. Type of series: cell-based. To be noted: Escherichia coli.
Source text: as §1

Series [1] has as its system Ps. aeruginosa NCTC 10662. The experiment in a line: MIC against Ps. aeruginosa NCTC 10662. It is filed as cell-based. As to conditions: Agar.
Source text: as §1

In a further series the test system is S. faecalis I. The experiment in a line: MIC against S. faecalis I. Type of series: cell-based. As to conditions: Enterococcus faecalis, Agar.
Source text: as §1

The subject of a further series is S. aureus Oxford. Put plainly: MIC against S. aureus Oxford. It is filed as cell-based. As to conditions: Staphylococcus aureus, Agar.
Source text: as §1

Another series deals with P. morganii. Put plainly: MIC against P. morganii. Type of series: cell-based. To be noted: Morganella morganii, Agar.
Source text: as §1

The next series concerns Ps. aeruginosa Dalgleish. The experiment in a line: MIC against Ps. aeruginosa Dalgleish. Type of series: cell-based. To be noted: Pseudomonas aeruginosa; Agar; Ps. aeruginosa Dalgleish 10^-2.
Source text: as §1

The test system of the next series is N. catarrhalis 1502. The experiment in a line: MIC against N. catarrhalis 1502. It is filed as cell-based. As to conditions: Agar.
Source text: as §1

Series [2] is described as follows: reconversion of the formyl ester to the parent 6-hydroxymethyl penicillin. It is filed as physicochemical. On the procedure: The benzyl ester from the previous example (101 mg, 0.15 mmol) in THF (5 ml) was added to prehydrogenated 10% palladium on charcoal (100 mg) in THF (5 ml), water (1 ml). After shaking with hydrogen for 0.5 hours, the catalyst was filtered from the solution and washed well with N sodium bicarbonate solution (40 ml). The filtrate was washed with ethyl acetate (2×40 ml), acidified to pH 1.5 with 1 N-hydrochloric acid and extracted with ethyl acetate (3×40 ml). The combined extracts were washed with brine, dried and evaporated to give the title compound (46 mg, 51%), δ [(CD3)2 CO] 1.12, 1.35 (6H, 2s, 2 x CH3) 1.20 (3H, t, NCH2 CH3), 3.3-3.8 (4H, m, NCH2 and piperazine CH2), 3.8-4.3 (4H, m, CH2 O and piperazine CH2), 4.70 (1H, s, C3-proton), 5.57 (1H, s, C5 -proton), 5.72 (1H, d, J 6 Hz, α-proton) 7.45 (5H, m, aromatic protons), 8.25 (1H, s, CHO), 8.48 ( 1H, s, NH), 10.08 (1H, d, J 6 Hz, NH).

[3] abbreviates: Ps. aeruginosa NCTC 10662 10^-2.
[4] abbreviates: Pseudomonas aeruginosa, NCTC10662, Ps. aeruginosa NCTC 10662, read-out: MIC.

The term MIC denotes the smallest concentration in the dilution series that meets the test's criterion for growth inhibition. Consider `CCN1CCN(C(=O)NC(C(=O)N[C@]2(CO)C(=O)N3[C@@H](C(=O)O)C(C)(C)S[C@@H]32)c2csc(N)n2)C(=O)C1=O` (mixture of isomers) [Example 3, 6,α-Hydroxymethyl-6,β-[DL-α'-(4-ethyl-2,3-dioxopiperazine-1-carbonylamino)2-aminothiazole-4-acetamido]penicillanic acid], for which the MIC with B. subtilis is > 100 µg/mL; against E. coli JT 4 it was > 100 µg/mL; in the series on S. pyogenes ON 10, > 100 µg/mL; in the series with P. mirabilis 889, 10 µg/mL; in the series on E. coli JT 425, 100 µg/mL; in the series on S. marcescens US 32, 50 µg/mL. The minimal inhibitory concentration (MIC) with S. aureus Russell is > 100 µg/mL; in the series on P. rettgeri it was 25 µg/mL; with P. mirabilis C 977 it was 10 µg/mL; in the series with E. cloacae N1, 25 µg/mL; in the series on K. aerogenes A (Agar) it was 1 µg/mL; in the series with E. coli NCTC 10413 (NCTC10413, Agar) it was 10 µg/mL. Also, the MIC was > 100 µg/mL in series [1] (setting [3]); > 100 µg/mL in series [1] (setting [4]); 100 µg/mL against S. faecalis I; > 100 µg/mL in the series with S. aureus Oxford; 10 µg/mL with P. morganii.
For the compound `CCN1CCN(C(=O)N[C@@H](C(=O)N[C@]2(CO)C(=O)N3[C@@H](C(=O)O)C(C)(C)S[C@@H]32)c2ccccc2)C(=O)C1=O` [Example 1, 6,α-Hydroxymethyl-6,β-[D,α'-(4-ethyl-2,3-dioxopiperazine-1-carbonylamino)-phenylacetamido]penicillanic acid], the MIC is > 100 µg/mL in the series with B. subtilis; 100 µg/mL (≈ 183 µM) against E. coli JT 4; 25 µg/mL (≈ 45.7 µM) in the series with S. pyogenes ON 10; > 100 µg/mL in the series with Ps. aeruginosa Dalgleish; 5 µg/mL (≈ 9.13 µM) with P. mirabilis 889; 50 µg/mL (≈ 91.3 µM) in the series on E. coli JT 425. The MIC in the series on S. marcescens US 32 was 50 µg/mL (≈ 91.3 µM); with S. aureus Russell it was > 100 µg/mL; with P. rettgeri, 50 µg/mL (≈ 91.3 µM); against N. catarrhalis 1502, 1 µg/mL (≈ 1.83 µM); with P. mirabilis C 977, 10 µg/mL (≈ 18.3 µM); in the series with E. cloacae N1, 25 µg/mL (≈ 45.7 µM). Also, the minimum inhibitory concentration (MIC) is 5 µg/mL (≈ 9.13 µM) against K. aerogenes A (Agar); 100 µg/mL (≈ 183 µM) against K. aerogenes A (Broth); 25 µg/mL (≈ 45.7 µM) in the series with E. coli NCTC 10413 (NCTC10413, Agar); 10 µg/mL (≈ 18.3 µM) against E. coli NCTC 10413 (NCTC10413, Broth); > 100 µg/mL in series [1] (setting [3]); > 100 µg/mL in [1] (setting [4]). Further, the minimal inhibitory concentration (MIC) with S. faecalis I is > 100 µg/mL; against S. aureus Oxford it was > 100 µg/mL; with P. morganii it was 25 µg/mL (≈ 45.7 µM).
For `CCN1CCN(C(=O)N[C@@H](C(=O)N[C@]2(CO)C(=O)N3[C@@H](C(=O)O)C(C)(C)S[C@@H]32)c2ccc(O)cc2)C(=O)C1=O` [Example 2, 6,α-Hydroxymethyl-6,β-[D,α'-(4-ethyl-2,3-dioxopiperazine-1-carbonylamino)-p-hydroxyphenylacetamido]penicillanic acid], the MIC in the series with B. subtilis is > 100 µg/mL; with E. coli JT 4 it was 100 µg/mL (≈ 177 µM); against S. pyogenes ON 10, 2.5 µg/mL (≈ 4.44 µM); in the series on Ps. aeruginosa Dalgleish, > 100 µg/mL; with P. mirabilis 889, 2.5 µg/mL (≈ 4.44 µM); with E. coli JT 425, 50 µg/mL (≈ 88.7 µM). The MIC against S. marcescens US 32 is 5 µg/mL (≈ 8.87 µM); in the series on S. aureus Russell, > 100 µg/mL; against P. rettgeri it was 5 µg/mL (≈ 8.87 µM); against N. catarrhalis 1502, 1 µg/mL (≈ 1.77 µM); in the series on P. mirabilis C 977, 2.5 µg/mL (≈ 4.44 µM); against E. cloacae N1 it was 5 µg/mL (≈ 8.87 µM). Besides, the MIC was 2.5 µg/mL (≈ 4.44 µM) in the series with K. aerogenes A (Agar); 1 µg/mL (≈ 1.77 µM) in the series with K. aerogenes A (Broth); 5 µg/mL (≈ 8.87 µM) against E. coli NCTC 10413 (NCTC10413, Agar); 5 µg/mL (≈ 8.87 µM) in the series on E. coli NCTC 10413 (NCTC10413, Broth); > 100 µg/mL in [1] (setting [3]); > 100 µg/mL in series [1] (setting [4]). Further, the MIC against S. faecalis I was > 100 µg/mL; in the series with S. aureus Oxford, > 100 µg/mL; in the series on P. morganii it was 5 µg/mL (≈ 8.87 µM).
Consider `CCN1CCN(C(=O)N[C@@H](C(=O)N[C@]2(COC=O)C(=O)N3[C@@H](C(=O)O)C(C)(C)S[C@@H]32)c2ccccc2)C(=O)C1=O` [Example 4, 6,α-Formyloxymethyl-6,β-[D,α'-(4-ethyl-2,3-dioxopiperazine-1-carbonylamino)-phenylacetamido]penicillanic acid], for which the “reconversion to the 6-hydroxymethyl compound” value in [2] (in the solvents used for h.p.l.c.) was “complete and instantaneous”. Further, the “parent 6-hydroxymethyl penicillin formed on preparation of the sodium salt” value in [2] (precipitation from acetone using 2 N sodium ethyl hexanoate in methyl isobutyl ketone) is listed as “an appreciable amount”.
